In this assay the target is T1, APJ Receptor (Homo sapiens, UniProt P35414).
T1 sequence (P35414 1-380): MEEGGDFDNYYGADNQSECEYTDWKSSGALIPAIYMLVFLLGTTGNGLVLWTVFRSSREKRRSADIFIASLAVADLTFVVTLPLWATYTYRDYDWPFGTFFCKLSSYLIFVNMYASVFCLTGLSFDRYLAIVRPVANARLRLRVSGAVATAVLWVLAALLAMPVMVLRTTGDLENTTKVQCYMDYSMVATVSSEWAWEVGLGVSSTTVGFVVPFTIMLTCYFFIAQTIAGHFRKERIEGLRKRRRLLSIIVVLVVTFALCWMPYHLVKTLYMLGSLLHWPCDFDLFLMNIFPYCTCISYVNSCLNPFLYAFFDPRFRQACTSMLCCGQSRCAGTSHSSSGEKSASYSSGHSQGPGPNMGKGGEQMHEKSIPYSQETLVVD
Kind of assay: APJ cAMP assay: inhibition of forskolin-stimulated cAMP, enzyme fragment complementation, in CHO-K1 cells stably expressing the APJ Receptor. The format is cell-based. The following applies: CHO-K1 cell line (DiscoverX) stably expressing APJ Receptor; EC80 forskolin; 30 minutes at 37° C.; read-out: APJ cAMP EC50 Potency range. From the text: Activation of APJ receptor is known to inhibit forskolin-stimulated cyclic AMP (cAMP) production in cells in a pertussis toxin-sensitive manner which indicates primary coupling to the GαI subunit of the G protein heterotrimeric complex. In addition to signaling through G protein and inhibition of cAMP, APJ receptor activation also results in β-arrestin recruitment, receptor internalization and activation of extracellular-regulated kinases (ERKs).
In order to optimize functional activity directed toward Gi coupling we utilized a CHO-K1 cell line developed by DiscoverX stably expressing the APJ Receptor. Cells expressing APJR receptor were plated in a 384-well microtiter plates and incubated overnight at 37° C. with 5% CO2 to allow the cells to attach and grow. Media was then aspirated from the cells and replaced with 15 uL 2:1 Hanks Balanced Salt Solution (HBSS)/10 mM Hepes. cAMP XS+ Ab reagent. Five microliters (5 uL) of previously generated compound sample stocks at 4× final concentration in assay buffer containing 4×EC80 forskolin were then added to the cells and allowed to incubate at 37° C. for 30 minutes.
After incubation the assay signal was generated using a technology termed enzyme fragment complementation (EFC). In EFC the enzyme B-galactosidase is split into two complementary portions (EA and ED). The fragment ED is fused to cAMP and in the assay format competes with endogenous cAMP for binding to a cAMP specific antibody. Activated B-Gal is formed when exogenous EA fragment binds to free ED-cAMP (not bound to cAMP specific antibody). Activated enzyme levels are detected through conversion of B-gal chemiluminescent substrate which generates a detectable luminescence signal and read on standard microtiter plate.
The methodology for detection of cAMP using EFC requires incubation with 20 uL of cAMP XS+ ED/CL lysis cocktail for one hour followed by incubation with 20 uL cAMP XS+ EA reagent for three hours at room temperature. Microplates were read following signal generation with a PerkinElmer Envision instrument utilizing chemiluminescent signal detection.
Compound activity was analyzed using CBIS data analysis suite (ChemInnovation, CA).
Percentage activity was calculated using the following formula: % Activity=[…]×(1−(mean RLU of test sample−mean RLU of Max control)/(mean RLU of vehicle control−mean RLU of Max control))
The biological activity of the exemplified compounds of this invention determined by the assay described above is shown in Table 1. The APJ cAMP EC50 potency ranges are as follows: A: EC50<1 nM; B: 1≤EC50<100 nM; and C: 100≤EC50<10,000 nM.

For the molecule `COc1cccc(OC)c1-n1c(C(=O)NS(=O)(=O)Cc2ccccc2)nnc1-c1cccc(OC(F)F)n1` [Example 21, N-(benzylsulfonyl)-5-(6-(difluoromethoxy)pyridin-2-yl)-4-(2,6-dimethoxyphenyl)-4H-1,2,4-triazole-3-carboxamide], the EC50 was in the range of 1 to 100 nM.

In the case of `COc1cccc(OC)c1-n1c(C(=O)NS(=O)(=O)Cc2ncccn2)nnc1-c1cccc(OC(F)F)n1` [Example 22, 5-(6-(Difluoromethoxy)pyridin-2-yl)-4-(2,6-dimethoxyphenyl)-N-((pyrimidin-2-ylmethyl)sulfonyl)-4H-1,2,4-triazole-3-carboxamide], the EC50 lay in the range of 1 to 100 nM.

Turning to `COc1cccc(OC)c1-n1c(C(=O)NS(=O)(=O)Cc2ncccn2)nnc1-c1ccc(F)c(OC)n1` [Example 23, 4-(2,6-Dimethoxyphenyl)-5-(5-fluoro-6-methoxypyridin-2-yl)-N-((pyrimidin-2-ylmethyl)sulfonyl)-4H-1,2,4-triazole-3-carboxamide], the EC50 is 100 to 10000 nM.

For the molecule `COc1cccc(OC)c1-n1c(C(=O)NS(=O)(=O)Cc2ncc(C)cn2)nnc1-c1ccc(C)cn1` [Example 24, 4-(2,6-Dimethoxyphenyl)-5-(5-methylpyridin-2-yl)-N-(((5-methylpyrimidin-2-yl)methyl)sulfonyl)-4H-1,2,4-triazole-3-carboxamide], the EC50 lay within 100 to 10000 nM.

In the case of `COc1cccc(OC)c1-n1c(C(=O)NS(=O)(=O)Cc2ncccn2)nnc1-c1cc(C)ccn1` [Example 25, 4-(2,6-Dimethoxyphenyl)-5-(4-methylpyridin-2-yl)-N-((pyrimidin-2-ylmethyl)sulfonyl)-4H-1,2,4-triazole-3-carboxamide], the EC50 lay within 100 to 10000 nM.

With `COc1cccc(-c2nnc(C(=O)NS(=O)(=O)Cc3ncccn3)n2-c2c(OC)cccc2OC)n1` [Example 26, 4-(2,6-dimethoxyphenyl)-5-(6-methoxypyridin-2-yl)-N-((pyrimidin-2-ylmethyl)sulfonyl)-4H-1,2,4-triazole-3-carboxamide], the EC50 was less than 1 nM.

Turning to `COc1cccc(-c2nnc(C(=O)NS(=O)(=O)Cc3ncc(C)cn3)n2-c2c(OC)cccc2OC)n1` [Example 27, 4-(2,6-Dimethoxyphenyl)-5-(6-methoxypyridin-2-yl)-N-(((5-methylpyrimidin-2-yl)methyl)sulfonyl)-4H-1,2,4-triazole-3-carboxamide], the EC50 is less than 1 nM.

Turning to `COc1cccc(-c2nnc(C(=O)NS(=O)(=O)Cc3ccccn3)n2-c2c(OC)cccc2OC)n1` [Example 28, 4-(2,6-Dimethoxyphenyl)-5-(6-methoxypyridin-2-yl)-N-((pyridin-2-ylmethyl)sulfonyl)-4H-1,2,4-triazole-3-carboxamide], the EC50 was less than 1 nM.

In the case of `COc1cccc(-c2nnc(C(=O)NS(=O)(=O)Cc3ncc(Cl)cn3)n2-c2c(OC)cccc2OC)n1` [Example 29, N-(((5-chloropyrimidin-2-yl)methyl)sulfonyl)-4-(2,6-dimethoxyphenyl)-5-(6-methoxypyridin-2-yl)-4H-1,2,4-triazole-3-carboxamide], the EC50 is less than 1 nM.

Take `COc1cccc(-c2nnc(C(=O)NS(=O)(=O)Cc3cccc(F)c3)n2-c2c(OC)cccc2OC)n1` [Example 30, 4-(2,6-Dimethoxyphenyl)-N-((3-fluorobenzyl)sulfonyl)-5-(6-methoxypyridin-2-yl)-4H-1,2,4-triazole-3-carboxamide]: the EC50 fell in the range of 1 to 100 nM.

With `COc1cccc(-c2nnc(C(=O)NS(=O)(=O)Cc3ccc(F)cc3)n2-c2c(OC)cccc2OC)n1` [Example 31, 4-(2,6-Dimethoxyphenyl)-N-((4-fluorobenzyl)sulfonyl)-5-(6-methoxypyridin-2-yl)-4H-1,2,4-triazole-3-carboxamide], the EC50 is less than 1 nM.

Regarding `COc1cccc(-c2nnc(C(=O)NS(=O)(=O)CC3CCCCC3)n2-c2c(OC)cccc2OC)n1` [Example 34, N-((cyclohexylmethyl)sulfonyl)-4-(2,6-dimethoxyphenyl)-5-(6-methoxypyridin-2-yl)-4H-1,2,4-triazole-3-carboxamide], the EC50 is less than 1 nM.

On to `COc1cccc(-c2nnc(C(=O)NS(=O)(=O)CC3CC3)n2-c2c(OC)cccc2OC)n1` [Example 35, N-((cyclopropylmethyl)sulfonyl)-4-(2,6-dimethoxyphenyl)-5-(6-methoxypyridin-2-yl)-4H-1,2,4-triazole-3-carboxamide], for which the EC50 is 1 to 100 nM.

On to `COc1cccc(-c2nnc(C(=O)NS(=O)(=O)Cc3cncnc3)n2-c2c(OC)cccc2OC)n1` [Example 36, 4-(2,6-Dimethoxyphenyl)-5-(6-methoxypyridin-2-yl)-N-((pyrimidin-5-ylmethyl)sulfonyl)-4H-1,2,4-triazole-3-carboxamide], for which the EC50 is 1 to 100 nM.

Consider `COc1cccc(-c2nnc(C(=O)NS(=O)(=O)Cc3cnccn3)n2-c2c(OC)cccc2OC)n1` [Example 37, 4-(2,6-Dimethoxyphenyl)-5-(6-methoxypyridin-2-yl)-N-((pyrazin-2-ylmethyl)sulfonyl)-4H-1,2,4-triazole-3-carboxamide], for which the EC50 is 1 to 100 nM.

Regarding `CCOc1cccc(-c2nnc(C(=O)NS(=O)(=O)Cc3ncc(C)cn3)n2-c2c(OC)cccc2OC)n1` [Example 38, 4-(2,6-Dimethoxyphenyl)-5-(6-ethoxypyridin-2-yl)-N-(((5-methylpyrimidin-2-yl)methyl)sulfonyl)-4H-1,2,4-triazole-3-carboxamide], the EC50 is less than 1 nM.

As to `CCOc1cccc(-c2nnc(C(=O)NS(=O)(=O)Cc3ncccn3)n2-c2c(OC)cccc2OC)n1` [Example 41, 4-(2,6-Dimethoxyphenyl)-5-(6-ethoxypyridin-2-yl)-N-((pyrimidin-2-ylmethyl)sulfonyl)-4H-1,2,4-triazole-3-carboxamide], the EC50 was less than 1 nM.

Turning to `CCOc1cccc(-c2nnc(C(=O)NS(=O)(=O)Cc3ncc(F)cn3)n2-c2c(OC)cccc2OC)n1` [Example 42, 4-(2,6-Dimethoxyphenyl)-5-(6-ethoxypyridin-2-yl)-N-(((5-fluoropyrimidin-2-yl)methyl)sulfonyl)-4H-1,2,4-triazole-3-carboxamide], the EC50 is less than 1 nM.

With `CCOc1cccc(-c2nnc(C(=O)NS(=O)(=O)Cc3ncc(Cl)cn3)n2-c2c(OC)cccc2OC)n1` [Example 43, N-(((5-chloropyrimidin-2-yl)methyl)sulfonyl)-4-(2,6-dimethoxyphenyl)-5-(6-ethoxypyridin-2-yl)-4H-1,2,4-triazole-3-carboxamide], the EC50 was less than 1 nM.

For the molecule `CCOc1cccc(-c2nnc(C(=O)NS(=O)(=O)Cc3ncc(OC)cn3)n2-c2c(OC)cccc2OC)n1` [Example 44, 4-(2,6-Dimethoxyphenyl)-5-(6-ethoxypyridin-2-yl)-N-(((5-methoxypyrimidin-2-yl)methyl)sulfonyl)-4H-1,2,4-triazole-3-carboxamide], the EC50 was less than 1 nM.

For the molecule `CCOc1cccc(-c2nnc(C(=O)NS(=O)(=O)CCc3ccncc3)n2-c2c(OC)cccc2OC)n1` [Example 49, 4-(2,6-Dimethoxyphenyl)-5-(6-ethoxypyridin-2-yl)-N-((2-(pyridin-4-yl)ethyl)sulfonyl)-4H-1,2,4-triazole-3-carboxamide], the EC50 is less than 1 nM.

Consider `CCOc1cccc(-c2nnc(C(=O)NS(=O)(=O)CCc3cccnc3)n2-c2c(OC)cccc2OC)n1` [Example 50, 4-(2,6-Dimethoxyphenyl)-5-(6-ethoxypyridin-2-yl)-N-((2-(pyridin-3-yl)ethyl)sulfonyl)-4H-1,2,4-triazole-3-carboxamide], for which the EC50 was less than 1 nM.

On to `CCOc1cccc(-c2nnc(C(=O)NS(=O)(=O)CCc3ccccn3)n2-c2c(OC)cccc2OC)n1` [Example 51, 4-(2,6-Dimethoxyphenyl)-5-(6-ethoxypyridin-2-yl)-N-((2-(pyridin-2-yl)ethyl)sulfonyl)-4H-1,2,4-triazole-3-carboxamide], for which the EC50 was less than 1 nM.

(Values after patent US11724997B2, “Compounds and compositions for treating conditions associated with APJ receptor activity” (Annapurna Bio, Inc., priority 2018, dated 2023).)
